Experimental data published in US8889878B2, “Haloalky-substituted amides as insecticides and acaricides” (Bayer CropScience AG, priority 2009, dated 2014).

Key:
Ctenocephalides felis [1] = experiment: Ctenocephalides felis oral (CTECFE), Example 2; type: in vivo; conditions: application rate 20 ppm in citrated cow's blood, after 2 days
Summary of the method: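 Compound in DMSO diluted into citrated cow's blood, offered to 20 unfed adult C. felis through a Parafilm membrane. Kill rate (%) scored after 2 days; 100% means all fleas dead.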

[2] = test system: armyworm (Spodoptera frugiperda); experiment: Spodoptera frugiperda test (SPODFR spray treatment), Example 6; type: in vivo; conditions: application rate 20 g/ha, maize leaf discs sprayed, after 7 days
Experimental: Spodoptera frugiperda Test (SPODFR Spray Treatment)
• Solvent: 78.0 parts by weight of acetone • 1.5 parts by weight of dimethylformamide • Emulsifier: 0.5 part by weight of alkylaryl polyglycol ether
To prepare an active ingredient formulation, 1 part by weight of active ingredient was mixed with the stated amounts of solvent and emulsifier, and the concentrate was diluted with emulsifier-containing water to the desired concentration. Leaf discs from maize (Zea mays) are sprayed with an active ingredient formulation of the desired concentration and, after drying, populated with caterpillars of the armyworm (Spodoptera frugiperda).
After 7 days, the efficacy in % is determined. 100% means that all caterpillars were killed; 0% means that no caterpillars were killed.

[3] = test system: green peach aphid (Myzus persicae); experiment: Myzus test (MYZUPE spray treatment), Example 17; type: in vivo; conditions: china cabbage leaf discs sprayed, after 6 days
Summary of the method: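 Efficacy recorded at 6 days as % kill, where 100% means every aphid dead and 0% none. Spray applied to Brassica pekinensis leaf discs bearing mixed-stage aphids; active ingredient dissolved in acetone with dimethylformamide and emulsifier, then diluted with emulsifier-containing water.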

Musca domestica adults [4] = experiment: Musca domestica test (MUSCDO), Example 14; type: in vivo; conditions: application rate 100 ppm, treated sponge, after 2 days
Summary of the method: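 Compound dissolved in DMSO and diluted in water to the test concentration, then applied to a sponge in vessels holding adult flies. Percent kill scored after 2 days (100% = all flies dead).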

Lucilia cuprina larvae = experiment: Lucilia cuprina test (LUCICU), Example 3; type: in vivo; conditions: application rate 20 ppm, treated horsemeat, after 2 days
Summary of the method: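 Horsemeat treated with a water dilution of a DMSO formulation of active ingredient was populated with Lucilia cuprina larvae. Kill rate in % read after 2 days; 100% means all larvae killed, 0% none.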

Boophilus microplus [5] = experiment: Boophilus microplus test (BOOPMI injection), Example 11; type: in vivo; conditions: application rate 20 μg/animal, injected into abdomen, after 7 days
Summary of the method: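 Efficacy rated from fertile egg laying: 100% means none of the ticks laid fertile eggs, read after 7 days. Compound, dissolved and diluted in DMSO, was delivered by abdominal injection, and ticks were kept in dishes under climate control.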

[6] = test system: mustard beetle (Phaedon cochleariae); experiment: Phaedon test (PHAECO spray treatment), Example 7; type: in vivo; conditions: application rate 20 g/ha, china cabbage leaf discs sprayed, after 7 days
Summary of the method: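 Spray formulation (acetone/DMF with alkylaryl polyglycol ether, diluted in emulsifier-containing water) applied to Chinese cabbage leaf discs, which were dried and then stocked with mustard beetle larvae. Efficacy scored at 7 days as % larvae killed (100% all, 0% none).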

[7] = logP by HPLC on reverse-phase column (EEC Directive 79/831 Annex V.A8); type: physicochemical; conditions: HPLC-MS
Experimental: The logP values reported in the above Tables and Preparation Examples were determined according to EEC Directive 79/831 Annex V.A8 by HPLC (High Performance Liquid Chromatography) on a reverse-phase column (C18). Temperature 43° C.

Boophilus microplus [8] = experiment: Boophilus microplus test (BOOPMI injection), Example 1; type: in vivo; conditions: application rate 20 μg/animal, injected into abdomen, after 7 days
Summary of the method: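 Compound in DMSO, diluted with water, injected into the abdomen of engorged ticks, which were then held in a climate-controlled room. Efficacy was scored after 7 days from fertile egg laying, with 100% meaning no tick laid fertile eggs.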

Musca domestica adults [9] = experiment: Musca domestica test (MUSCDO), Example 4; type: in vivo; conditions: application rate 20 ppm, treated sponge, after 2 days
Experimental: Musca domestica Test (MUSCDO) • Solvent: dimethyl sulphoxide To prepare an active ingredient formulation, 10 mg of active ingredient are mixed with 0.5 ml of dimethyl sulphoxide, and the concentrate is diluted with water to the desired concentration. Vessels containing a sponge which has been treated with the active ingredient formulation of the desired concentration are populated with Musca domestica adults. After 2 days, the kill rate in % is determined. 100% means that all flies were killed; 0% means that no flies were killed.

[10] = test system: red spider mite (Tetranychus urticae); experiment: Tetranychus test, OP-resistant (TETRUR spray treatment), Example 8; type: in vivo; conditions: application rate 20 g/ha, common bean leaf discs sprayed, after 6 days
Summary of the method: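 Bean (Phaseolus vulgaris) leaf discs carrying all stages of OP-resistant Tetranychus urticae sprayed with compound in acetone/DMF with emulsifier, diluted in water to the test concentration. Mortality scored after 6 days as % efficacy (100% = all mites killed).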

Ctenocephalides felis [11] = experiment: Ctenocephalides felis oral (CTECFE), Example 12; type: in vivo; conditions: application rate 100 ppm in citrated cow's blood, after 2 days
Experimental: Ctenocephalides felis Oral ([…]) • Solvent: 1 part by weight of dimethyl sulphoxide For the purpose of preparing an appropriate active ingredient formulation, 10 mg of active ingredient are mixed with 0.5 ml of dimethyl sulphoxide. A portion of the concentrate is diluted with citrated cow's blood and the desired concentration is established. About 20 unfed adult fleas (Ctenocephalides felis) are placed into a chamber sealed at the top and bottom with gauze. A metal cylinder with its lower end sealed with Parafilm is placed onto the chamber. The cylinder contains the blood-active ingredient preparation, which can be consumed by the fleas through the Parafilm membrane. After 2 days, the kill rate in % is determined. 100% means that all fleas were killed; 0% means that no fleas were killed.

[12] = test system: Boophilus microplus females of the SP-resistant Parkhurst strain; experiment: Boophilus microplus test (DIP), Example 10; type: in vivo; conditions: application rate 100 ppm, after 7 days
Experimental: Boophilus microplus Test (DIP)
Test animals: adult engorged Boophilus microplus females of the SP-resistant Parkhurst strain • Solvent: dimethyl sulphoxide
10 mg of active ingredient are dissolved in 0.5 ml of dimethyl sulphoxide. For the purpose of preparing a suitable formulation, the active ingredient solution is diluted with water to the concentration desired in each case.
This active ingredient formulation is pipetted into tubes. 8-10 ticks are transferred into a further tube with holes. The tube is immersed into the active ingredient formulation, and all ticks are completely wetted. After the liquid has run out, the ticks are transferred onto filter discs in plastic dishes and stored in a climate-controlled room. The efficacy is assessed after 7 days by the number of fertile eggs laid. Eggs whose fertility is not outwardly visible are stored in glass tubes in a climate-controlled cabinet until the larvae hatch. Efficacy of 100% means that none of the ticks has laid any fertile eggs.

[13] = test system: armyworm (Spodoptera frugiperda); experiment: Spodoptera frugiperda test (SPODFR spray treatment), Example 15; type: in vivo; conditions: application rate 100 g/ha, maize leaf discs sprayed, after 7 days
Summary of the method: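 Caterpillars placed on dried, sprayed Zea mays leaf discs; formulation of acetone, dimethylformamide and emulsifier diluted with emulsifier-containing water to test concentration. Percent kill scored on day 7.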

[14] = test system: Tick nymphs (Amblyomma hebraeum); experiment: Amblyomma hebaraeum test (AMBYHE), Example 9; type: in vivo; conditions: application rate 100 ppm, immersed one minute, after 42 days
Experimental: Amblyomma hebaraeum Test (AMBYHE) • Solvent: dimethyl sulphoxide To prepare an appropriate active ingredient formulation, 10 mg of active ingredient are mixed with 0.5 ml of dimethyl sulphoxide, and the concentrate is diluted with water to the desired concentration. Tick nymphs (Amblyomma hebraeum) are placed into perforated plastic cups and immersed in the desired concentration for one minute. The ticks are transferred onto filter papers in a Petri dish and stored in a climate-controlled cabinet. After 42 days, the kill rate in % is determined. 100% means that all ticks were killed; 0% means that no ticks were killed.

Structure (SMILES)	kill rate in % (efficacy) (Ctenocephalides felis [1]) [%]	efficacy in % [2] [%]	efficacy in % ([3]; application rate 500 g/ha) [%]	kill rate in % (efficacy) (Musca domestica adults [4]) [%]	kill rate in % (efficacy) (Lucilia cuprina larvae) [%]	efficacy in % (fertile eggs laid) (Boophilus microplus [5]) [%]	efficacy in % [6] [%]	logP [7]	efficacy in % (fertile eggs laid) (Boophilus microplus [8]) [%]	kill rate in % (efficacy) (Musca domestica adults [9]) [%]	efficacy in % [10] [%]	kill rate in % (efficacy) (Ctenocephalides felis [11]) [%]	efficacy in % (fertile eggs laid) [12] [%]	efficacy in % [13] [%]	efficacy in % ([3]; application rate 100 g/ha) [%]	kill rate in % (efficacy) [14] [%]
O=C(/C=C/c1ccc(C(=O)NC2CC2)c(C(F)(F)F)c1)NC(c1cccc(C(F)(F)F)c1)C(F)(F)F (centres unmarked) [Ia-23]	100	83	100	100	100	100	100	HPLC-MS: logP = 3.18; mass	100							
CC(NC(=O)c1ccc(/C=C/C(=O)NC(c2cccc(C(F)(F)F)c2)C(F)(F)F)cc1C(F)(F)F)C(F)(F)F (centres unmarked) [Ia-30]	100			100	100	100		HPLC-MS: logP = 3.58; mass	100	85						
O=C(/C=C/c1ccc(C(=O)Nc2ccccn2)c(C(F)(F)F)c1)NC(c1cccc(C(F)(F)F)c1)C(F)(F)F (centres unmarked) [Ia-54]		100				100	100	HPLC-MS: logP = 3.58; mass			100	95				
O=C(/C=C/c1ccc(C(=O)Nc2ccc(Cl)nc2)c(C(F)(F)F)c1)NC(c1cccc(C(F)(F)F)c1)C(F)(F)F (centres unmarked) [Ia-72]		83					100	HPLC-MS: logP = 3.73; mass								
O=C(/C=C/c1ccc(C(=O)Nc2ccccn2)c(C(F)(F)F)c1)NC(c1cc(Cl)cc(C(F)(F)F)c1)C(F)(F)F (centres unmarked) [Ia-82]		83				100	100	HPLC-MS: logP = 4.32; mass								
C#CC(C)NC(=O)c1ccc(/C=C/C(=O)NC(c2cccc(C(F)(F)F)c2)C(F)(F)F)cc1Cl (centres unmarked) [Ia-161]				80		100		HPLC-MS: logP = 3.43; mass					98	100	90	100
O=C(/C=C/c1ccc(C(=O)NC2CCC2)c(Cl)c1)NC(c1cccc(C(F)(F)F)c1)C(F)(F)F (centres unmarked) [Ia-162]						100		HPLC-MS: logP = 3.59; mass					100		100	100
